Data taken from patent US11918550B2, “Sensitization of cancer cells to differentiation therapy with mitochondrial uncoupler niclosamide ethanolamine” (The Board of Trustees of the Leland Stanford Junior …, priority 2020, dated 2024).

Experiments:
SK-N-BE(2) cells = assay: Infinium Methylation EPIC array, locus-specific DNA methylation; type: cell-based
Description: DNA microarray analysis. DNA extraction was carried out with samples were extracted by using PureLink™ Genomic DNA Mini Kit (Gibco, K182001), according to the protocol provided by the supplier. The DNA was quantified with the Nanodrop and 3 ug was used for bisulfite modification using the EZ DNA methylation kit (D5001, Zymo Research, Orange, CA) according to the protocol provided with the modification step according to the recommendations for array processing of the samples. Control PCR reactions were carried out before array analysis to confirm successful modification of the DNA. The bisulfite-modified DNA (500 ng) was applied to the Infinium MethylationEPIC array (Illumina). After bisulfite treatment of the DNA samples, the cytosines in the CpG sites were genotyped as C/T polymorphisms according to the manufacturer's protocol. Raw array data was collected with 866 k probes for 8 samples across 4 stages (those are control, 5 hours, 24 hours and 48 hours). The fluorescence signals were measured from the BeadArrays using an Illumina BeadStation GX scanner.
The fluorescence data were then analyzed using the GenomeStudio software (Illumina). The software assigns a score called a “b value” to each CpG site, which corresponds to the ratio between the fluorescence signal of the methylated allele (C) and the sum of the fluorescent signals of the methylated (C) and unmethylated (T) alleles. The data generated by the BeadStudio software was exported and further analyses were performed in the R programming environment. Then a detection p-value for every probe in every sample, representing the quality of the signal is generated using method minfi. Poor probes with all samples' p-values larger than or equal to 0.01 are removed which results in 864 k probes left. For methylation levels estimations we use M-Values (log 2 based Methylation signal over unmethylation signal) for analysis.
Differential Methylation Probes are identified by first standardizing M-Values with both rows and columns and then enforced certain direction (hypermethylated or hypomethylated) between control versus treatments. The p-values used in the volcano plot is calculated through Fisher' method by combining quality p-value for all samples with each probe.

HIF2α = assay: Western blot of nuclear HIF2α under normoxia or hypoxia; type: cell-based; details: SK-N-BE(2), 2 or 4 μM NEN, 3.5 mM α-KG
Description: Protein extraction and immunoblot. […] Cell lysate was centrifuged at 3000 rpm for 3 min at 4° C. The supernatant containing cytosolic proteins was transferred to a different tube. […] Then the solution was sonicated at 4° C. for 6 cycles (1 cycle=30 s sonication and 30 s cooldown with “High” energy intensity) using a Bioruptor® Plus sonication (Diagenode, UCD-300). After sonication, the solution was centrifuged at 15,000 rpm for 10 minutes. The supernatant was kept as nuclear extraction. […] After blocking in 5% non-fat milk for 30 minutes at room temperature (RT), the primary antibody was added for incubation overnight at 4° C.

[1] = Plasma and tissue NEN levels under dietary NEN supplementation (LC/MS); type: in vivo; details: mice, diet that contains 2000 ppm NEN
Description: Metabolic analysis. For the metabolomics and isotope tracing analysis in vitro, cells were washed with cold PBS, lysed in 80% Ultra LC-MS acetonitrile on ice for 15 minutes, centrifuged at 20,000 g for 10 minutes at 4° C., and supernatant was subjected to mass spectrometry analysis. For the metabolomics analysis in vivo, 10-20 mg tissue were cut off on ice, rinsed if necessary to remove blood, and place in a 2 ml round-bottom cryovial. The tissues were homogenized by 3 times 10 s on/off bursts homogenization in 1 ml 80% methanol on dry ice. Transfer the homogenate to an Eppendorf tube and keep on liquid nitrogen while processing the remaining samples. Incubated all the samples in −80° C. for 30 minutes. After incubation, vortexed the samples for 5 seconds. Then centrifuged the samples at 20,000 g for 10 minutes at 4° C., and supernatant was subjected to mass spectrometry analysis. Resuspend the remaining cellular pellet in 100 ul protein lysis buffer and determine the protein concentration. Then calculate the total protein content per sample.
Liquid chromatography was performed using an Agilent 1290 Infinity LC system (Agilent, Santa Clara, US) coupled to a Q-TOF 6545 mass spectrometer (Agilent, Santa Clara, US). […]
Mouse orthotopic neuroblastoma model. […] Tumor formation was monitored by non-invasive ultrasound measurements, and the animals euthanized when the tumor volume exceeded 1,000 mm^3.

[2] = tested on: RA-resistant neuroblastoma cells; assay: Clonogenic assay; type: cell-based; details: 1 μM NEN with 1 μM RA, two weeks
Description: For the clonogenic assay, 500 cells were plated in 60 mm dishes. After 24 h, cells were treated with indicated conditions. After 14 days, the cells were fixed by 50% methanol in PBS for 15 minutes and stained by crystal violet staining solution (0.5% crystal violet and 25% methanol in PBS). The quantification was done by using countPHICS.

NEN accumulation in plasma [1]: 1 to 3 µM
Structure (SMILES): O=C(Nc1ccc([N+](=O)[O-])cc1Cl)c1cc(Cl)ccc1O [NEN, 5-chloro-N-(2-chloro-4-nitrophenyl)-2-hydroxybenzamide compound with 2-aminoethanol (1:1)]
differentially methylated sites close to transcription start sites (TSS200, 1st exon) (SK-N-BE(2) cells; 1 μM NEN 24 or 48 hours): more hypomethylated sites than hypermethylated sites
differentially methylated sites in 'shelf' and 'shore' regions (vs CpG islands) (SK-N-BE(2) cells; 1 μM NEN 24 or 48 hours): opposite trend
differentially methylated sites in CpG islands (SK-N-BE(2) cells; 1 μM NEN 24 or 48 hours): more hypo-methylated sites than hyper-methylated sites
differentially methylated sites in the gene body and 3′ UTR region (SK-N-BE(2) cells; 1 μM NEN 24 or 48 hours): more hypermethylated sites than hypomethylated sites
DNA methylation levels of CpG sites in the promoter region of p53 and CTNNBIP1 (SK-N-BE(2) cells; 1 μM NEN 24 h): upregulated/downregulated
inhibition of the accumulation of HIF2a protein (HIF2α): inhibited
inhibition of clonogenicity, NEN with RA [2]: strong synergistic effect
